Data published in patent US12146183B2, “Compound and a method for identifying a protein using said compound” (CITY UNIVERSITY OF HONG KONG, priority 2020, dated 2024).
Where a SMILES comes first, the peptide text is derived from it. The star is where a group is joined. ξ: configuration not given here. Lipoyl(6ξ) = O=C(CCCCC1CCSS1)*

B1: Sirt2 (Homo sapiens) (protein)
chain: MAEPDPSHPLETQAGKVQEAQDSDSDSEGGAAGGEADMDFLRNLFSQTLSLGSQKERLLDELTLEGVARYMQSERCRRVICLVGAGISTSAGIPDFRSPSTGLYDNLEKYHLPYPEAIFEISYFKKHPEPFFALAKELYPGQFKPTICHYFMRLLKDKGLLLRCYTQNIDTLERIAGLEQEDLVEAHGTFYTSHCVSASCRHEYPLSWMKEKIFSEVTPKCEDCQSLVKPDIVFFGESLPARFFSCMQSDFLKVDLLLVMGTSLQVQPFASLISKAPLSTPRLLINKEKAGQSDPFLGMIMGLGGGMDFDSKKAYRDVAWLGECDQGCLALAELLGWKKELEDLVRREHASIDAQSGAGVPNPSTSASPKKSPPPAKDEARTTEREKPQ
notes: made in house

Legend:
Sirt2 [1] = target: T1, Sirt2 (Homo sapiens, UniProt Q8IXJ6); experiment: HPLC delipoylation assay of lipoylated peptides with Sirt2; type: biochemical; settings: Sirt2 + NAD+, 37° C., monitored at 280 nm after 40 min
T1 construct: made in house
T1 sequence (Q8IXJ6 1-389): B1 chain
Protocol: A total of 11 lipoylated peptides (KAlip-1 to KAlip-11) were synthesised. The peptide sequences were selected from proteins that have been reported as being lipoylated (PDH, KDH, BCKDH, and GCV) and non-lipoylated proteins (e.g., histone). The peptides were synthesized with a standard Fmoc solid phase synthesis approach and characterized by LC-MS. The delipoylation activity was then determined by an HPLC assay. Compared with non-putative peptides, putative lipoylated peptides appeared to be more efficiently hydrolyzed by Sirt2. For example, the delipoylated product of KAlip-1 (derived from histone) after 40 min was determined to be 59%, which is less than that of putative lipoylated substrates such as KAlip-5 and KAlip-6 (derived from PDH).
The lipoylated peptides KAlip-1 to -11 were incubated with sirtuin and cofactor NAD+ at 37° C. in 20 mM HEPES buffer (pH 8.0) containing 150 mM NaCl, 1 mM MgCl2, and 2.7 mM KCl. The reaction volume was set to 50 μL. At each specific reaction time point, the reaction mixtures were quenched by adding 250 μL of methanol. The reactions were vortexed and centrifuged. Supernatant was collected and then analysed by reverse phase HPLC. The new peak generated was collected for ESI-MS or MALDI-TOF-MS analysis directly.

Sirt2 [2] = target: T1, Sirt2; experiment: In-gel fluorescence photo-crosslinking labelling of recombinant Sirt2; type: binding; settings: competition with probe KPlip
Protocol: The labelling efficiency of KPlip with recombinant Sirt2 was investigated. The Sirt2 enzyme was first incubated with either KPlip or a negative control probe, KPlip-C(lacking lipoylation), followed by 15 min of UV irradiation. Following click chemistry with rhodamine azide (Rh—N3), the reaction mixtures were resolved by SDS-PAGE and analysed by in-gel fluorescence scanning.
A further selectivity study was performed. […] To examine whether lipoic acid of KPlip forms a disulfide bond with cysteine residues in Sirt2, excessive reducing reagent TCEP was added to the solution containing Sirt2 and KPlip prior to UV irradiation.
20 μM azide reagent was added to the protein samples labelled by KPlip and KPlip-C. Tris(2-carboxyethyl)phosphine (0.4 mM), tris(3-hydroxypropyltriazolylmethyl)amine (40 μM), and CuSO 4 (0.4 mM) were then added. The reaction was kept at room temperature for 2 h.
After click chemistry reaction with rhodamine-azide, chilled acetone was added to the reaction mixtures. The reaction was then placed in a −20° C. freezer for 1 h to precipitate the proteins. The pellets were washed with cold methanol and air-dried. Finally, they were redissolved in 1×SDS loading buffer by heating at 95° C. for 10 min and then resolved by SDS-PAGE. The labelled proteins were visualized using a FLA-9000 Fujifilm scanner (Ex=532 nm).

[3] = substrate: C[C@H](NC(=O)[C@@H](NC(=O)[C@H](CCC(N)=O)NC(=O)[C@@H](N)CCCCN)[C@@H](C)O)C(=O)N[C@@H](CCCNC(=N)N)C(=O)N[C@@H](CCCCNC(=O)CCCCC1CCSS1)C(=O)N[C@@H](CO)C(=O)N[C@H](C(=O)NCC(=O)NCC(=O)N[C@@H](Cc1c[nH]c2ccccc12)C(=O)N[C@@H](Cc1c[nH]c2ccccc12)C(=O)O)[C@@H](C)O; experiment: Steady-state kinetic study of lipoylated peptides with Sirt2 (HPLC); type: biochemical; settings: other: Sirt2, 400 μM NAD+, HEPES pH 8.0, 37° C.
Protocol: (§1) The delipoylation activity of HDAC8 was further examined using KAlip-5 and KAlip-1. […] A more detailed assessment of the enzymatic delipoylation reaction was performed. Time-dependent experiments and steady-state kinetics studies were conducted of KAlip-1, 5, 8, and 10 with Sirt2 (Table 1).
(§2) To determine the values of kcat, and Km, purified Sirt2 with 400 μM NAD+ was incubated with different concentrations of lipoylated peptide (0-120 μM) in 20 mM HEPES buffer (pH 8.0) containing 150 mM NaCl, 1 mM MgCl2, and 2.7 mM KCl at 37° C. for 10 min (KAlip-1 and KAlip-10) or 5 min (KAlip-5 and KAlip-8). The reactions were quenched by adding 250 μL of methanol and then applied for HPLC analysis with a linear gradient of 5% to 85% B (acetonitrile) for 30 min. The generated delipoylated product was quantified based on the peak area monitored at 280 nm. The kcat, and Km, values were calculated by curve-fitting Vinitiai/[E] versus [S]. The experiments were conducted in duplicate.

[4] = substrate: CSCC[C@H](NC(=O)[C@H](C)NC(=O)[C@H](CCC(=O)O)NC(=O)[C@@H](N)C(C)C)C(=O)N[C@@H](CCCCNC(=O)CCCCC1CCSS1)C(=O)N[C@@H](CC(C)C)C(=O)N[C@@H](CCSC)C(=O)N[C@@H](CC(N)=O)C(=O)N[C@@H](CCC(=O)O)C(=O)N[C@@H](Cc1c[nH]c2ccccc12)C(=O)N[C@@H](Cc1c[nH]c2ccccc12)C(=O)O; experiment: as above; type: biochemical; settings: other: Sirt2, 400 μM NAD+, HEPES pH 8.0, 37° C.
Protocol: as §1, §2

[5] = substrate: CC[C@H](C)[C@H](NC(=O)[C@@H](NC(=O)[C@H](C)NC(=O)[C@H](CCCCNC(=O)CCCCC1CCSS1)NC(=O)[C@H](CC(=O)O)NC(=O)[C@@H](NC(=O)[C@H](CCC(=O)O)NC(=O)[C@@H](NC(=O)[C@@H](N)CCC(=O)O)[C@@H](C)CC)[C@@H](C)O)[C@@H](C)O)C(=O)NCC(=O)N[C@@H](Cc1c[nH]c2ccccc12)C(=O)N[C@@H](Cc1c[nH]c2ccccc12)C(=O)O; experiment: as above; type: biochemical; settings: other: Sirt2, 400 μM NAD+, HEPES pH 8.0, 37° C.
Protocol: as §1, §2

[6] = substrate: CC(C)[C@H](N)C(=O)N[C@@H](CCC(N)=O)C(=O)N[C@@H](CO)C(=O)N[C@@H](CC(=O)O)C(=O)N[C@@H](CCCCNC(=O)CCCCC1CCSS1)C(=O)N[C@@H](C)C(=O)N[C@@H](CO)C(=O)N[C@H](C(=O)N[C@H](C(=O)N[C@@H](Cc1c[nH]c2ccccc12)C(=O)N[C@@H](Cc1c[nH]c2ccccc12)C(=O)O)[C@@H](C)O)C(C)C; experiment: as above; type: biochemical; settings: other: Sirt2, 400 μM NAD+, HEPES pH 8.0, 37° C.
Protocol: as §1, §2

| Molecule | Delipoylation product (HPLC yield of delipoylated product) (Sirt2 [1]) | also measured |
| --- | --- | --- |
| C[C@H](NC(=O)[C@@H](NC(=O)[C@H](CCC(N)=O)NC(=O)[C@@H](N)CCCCN)[C@@H](C)O)C(=O)N[C@@H](CCCNC(=N)N)C(=O)N[C@@H](CCCCNC(=O)CCCCC1CCSS1)C(=O)N[C@@H](CO)C(=O)N[C@H](C(=O)NCC(=O)NCC(=O)N[C@@H](Cc1c[nH]c2ccccc12)C(=O)N[C@@H](Cc1c[nH]c2ccccc12)C(=O)O)[C@@H](C)O (stereo partly drawn) [KAlip-1, KQTARK(lip)STGGWW] (H-KQTARK(Lipoyl(6ξ))STGGWW-OH) | 59% |  |
| CC[C@H](C)[C@H](NC(=O)[C@@H](NC(=O)[C@H](C)NC(=O)[C@H](CCCCNC(=O)CCCCC1CCSS1)NC(=O)[C@H](CC(=O)O)NC(=O)[C@@H](NC(=O)[C@H](CCC(=O)O)NC(=O)[C@@H](NC(=O)[C@@H](N)CCC(=O)O)[C@@H](C)CC)[C@@H](C)O)[C@@H](C)O)C(=O)NCC(=O)N[C@@H](Cc1c[nH]c2ccccc12)C(=O)N[C@@H](Cc1c[nH]c2ccccc12)C(=O)O (stereo partly drawn) [KAlip-5, EIETDK(lip)ATIGWW] (H-EIETDK(Lipoyl(6ξ))ATIGWW-OH) | 100% |  |
| CC(C)[C@H](N)C(=O)N[C@@H](CCC(N)=O)C(=O)N[C@@H](CO)C(=O)N[C@@H](CC(=O)O)C(=O)N[C@@H](CCCCNC(=O)CCCCC1CCSS1)C(=O)N[C@@H](C)C(=O)N[C@@H](CO)C(=O)N[C@H](C(=O)N[C@H](C(=O)N[C@@H](Cc1c[nH]c2ccccc12)C(=O)N[C@@H](Cc1c[nH]c2ccccc12)C(=O)O)[C@@H](C)O)C(C)C (stereo partly drawn) [KAlip-8, VQSD K(lip)ASVTWW] (H-VQSDK(Lipoyl(6ξ))ASVTWW-OH) | 100% |  |
| CSCC[C@H](NC(=O)[C@H](C)NC(=O)[C@H](CCC(=O)O)NC(=O)[C@@H](N)C(C)C)C(=O)N[C@@H](CCCCNC(=O)CCCCC1CCSS1)C(=O)N[C@@H](CC(C)C)C(=O)N[C@@H](CCSC)C(=O)N[C@@H](CC(N)=O)C(=O)N[C@@H](CCC(=O)O)C(=O)N[C@@H](Cc1c[nH]c2ccccc12)C(=O)N[C@@H](Cc1c[nH]c2ccccc12)C(=O)O (stereo partly drawn) [KAlip-11, VEAMK(lip)LMNE WW] (H-VEAMK(Lipoyl(6ξ))LMNEWW-OH) | 94% |  |
| EALPKK(lip) TGGPWW [KAlip-9] | 100% |  |
| EIETDK(lip) TSVQWW [KAlip-7] | 65% |  |
| EIETDK(lip)AVVTWW [KAlip-6] | 100% |  |
| SDPIIK(lip)GSGTWW [KAlip-3] | 98% |  |
| SGASEK(lip)DIVHSGWW [KAlip-4] | 100% |  |
| VKSK(lip)ATNL WW [KAlip-2] | 97% |  |
| VQSDKlipASVT [lipoylated peptide competitor] |  | Inhibition of KPlip labelling of Sirt2 (Sirt2 [2]): can be inhibited |
| B1 |  | Km [3]: 9.7 ± 0.2 µM; Km [4]: 13.5 µM; Km [5]: 18.9 µM; Km [6]: 26.2 ± 3.3 µM |
